{"source": "paper PMC6680637", "about": "“In Silico Repositioning of Cannabigerol as a Novel Inhibitor of the Enoyl Acyl Carrier Protein (ACP) Reductase (InhA)” (Molecules, 2019)", "target": "T1, Enoyl acyl carrier protein (ACP) reductase (InhA) (Mycobacterium tuberculosis, UniProt P9WGR1)", "T1 construct": "wild type InhA", "T1 sequence (P9WGR1 whole entry, looked up)": "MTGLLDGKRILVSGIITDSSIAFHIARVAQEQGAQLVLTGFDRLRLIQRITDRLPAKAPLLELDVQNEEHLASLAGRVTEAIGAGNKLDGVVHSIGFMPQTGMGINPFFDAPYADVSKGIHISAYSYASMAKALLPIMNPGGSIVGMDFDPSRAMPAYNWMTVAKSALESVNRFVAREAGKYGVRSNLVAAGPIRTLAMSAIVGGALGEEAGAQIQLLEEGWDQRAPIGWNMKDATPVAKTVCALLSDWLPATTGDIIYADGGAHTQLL", "assay": "enzyme kinetic assay, NADH oxidation at […] nm with trans-2-dodecenoyl-CoA substrate", "assay_type": "biochemical"}
{"smiles": "CCCCCc1cc(O)c(C/C=C(\\C)CCC=C(C)C)c(O)c1", "note": "[CBG, Cannabigerol]", "values": [{"measurement": "IC50", "value": "5.2 ± 0.1", "unit": "µM"}]}
